Series [1] is described as follows: Rat liver microsomal metabolic stability. The format is in vitro ADME. The settings on record: rat liver microsomes; for half-life at 1 µM: NADPH, 37°C; for CLint scaled at 1 µM: calculated from T1/2, fu defaulted to 1, read-out: CL(liver). An excerpt:
Metabolic stability affects the clearance rate, half-life, and oral bioavailability of compounds in the body, and is one of the most important ADME drug-like properties of compounds. Hepatocyte microsomal stability assay is a commonly used method for studying metabolic stability. In the present disclosure, rat liver microsomes are used to determine and investigate the metabolic stability of compounds.
Preparation of compound stock solution: an appropriate amount of the test compound and testosterone was taken, and a 1 mM stock solution was prepared with DMSO, which was stored in a refrigerator at 4°C.
Preparation of compound working solution: The 1 mM compound stock solution was taken respectively, and then diluted to 100 µM with acetonitrile-water (v:v = 1:1) to obtain the working solution.
Preparation of NADPH working solution: an appropriate amount of NADPH was weighed and dissolved in 16 mM MgCl2 to prepare a NADPH working solution with a concentration of 4.0 mM.
Preparation of rat liver microsome working solution: an appropriate amount of rat liver microsomes was taken and diluted with PBS to obtain a liver microsome working solution with a concentration of 1 mg/mL.
In the incubation system, 48 µL of PBS, 100 µL of rat liver microsome working solution, and 2 µL of the test compound working solution were sequentially added and mixed well. After pre-incubation at 37°C for 5 min, 50 µL of NADPH was added to initiate the reaction. After incubation for the corresponding time points, an appropriate amount of ice-cold acetonitrile containing an internal standard was added to terminate the reaction. The mixture was vortexed to mix well, centrifuged, and the supernatant was collected. The supernatant was injected into LC-MS/MS for detection of the residual metabolic amount of the compound.
Softwares of Excel, etc. were used for data processing according to the following formula. Ct = C0 •e^(−ke •t) [formula] when Ct = (1)/(2)C0 [formula] , T1/2 = (Ln2)/(ke) = (0.693)/(ke) [formula] CLint(mic) = (0.693)/(In vitro T1/2)•(1)/(mg/mL microsomal protein in reaction system) [formula] CLint(liver) = CLint(mic) •(mg microsomes)/(g liver)•(g liver)/(kg body weight) [formula] CL(liver) = (CLint(liver)×fu×Qh)/(CLint(liver)×fu+Qh) [formula] fu (unbound fraction in blood) was defaulted to be 1.

For series [2], the target named is T1, CYP2C19 (Homo sapiens, UniProt P33261).
T1 construct: human liver microsomes were used as the CYP450 enzyme source; from tissue; host or cells: human liver microsomes
Description: Inhibition of hepatic drug-metabolizing enzymes in human liver microsomes. The format is in vitro ADME. The note with it: human liver microsomes; read-out: Inhibitory activity on drug-metabolizing enzymes (IC50, µM) CYP2C19. From the text: (§1) The main site of drug metabolism is the liver, and the main component of the mixed-function oxidase system present in the liver is the CYP450 enzyme. This enzyme system causes most clinically observed drug-drug interactions, which in turn leads to an increased incidence of adverse drug reactions. CYP450 is a group of supergene family composed of many isozymes, wherein CYP3A4 acts as a major metabolizing enzyme and is involved in the metabolism of nearly half of clinically used drugs. Similarly, CYP2C9 and CYP2C19 also act as important metabolizing enzymes and are involved in the metabolism of various drugs clinically. Therefore, evaluating the risk of drug-drug interactions by testing the inhibitory activity of compounds on CYP450 enzymes at an early stage can improve the safety of medication use.
(§2) In the present disclosure, human liver microsomes were used as the CYP450 enzyme source. The specific probe substrates for each CYP isoenzyme (wherein CYP3A4 used two substrates, midazolam and testosterone, denoted as CYP3A4-M and CYP3A4-T respectively) were incubated with a series of concentrations of the test compound in the presence of the cofactor NADPH. The production amount of metabolites of probe substrates in the incubation system was determined by LC-MS/MS, and the IC50 values of the test compound against each CYP450 enzyme subtype were calculated to evaluate its inhibitory effect on each CYP450 enzyme subtype. During the experiment, 49 µL of PBS, 50 µL of probe substrate, and 50 µL of human liver microsome working solution were sequentially added to the incubation system, followed by the addition of 1 µL of the test compound working solution at each concentration, and the mixture was mixed well. After pre-incubation at 37°C for 5 min, 50 µL of NADPH was added to initiate the reaction. After incubation for the corresponding time, an appropriate amount of ice-cold acetonitrile containing an internal standard was added to terminate the reaction. The mixture was vortexed to mix well, centrifuged, and the supernatant was taken. The supernatant was injected into LC-MS/MS to determine the production amount of metabolites of the probe substrate. Taking the enzyme activity at the 0-concentration point (characterized by the production amount of metabolites) as 100%, the percentage of residual enzyme activity of metabolites at different concentrations of the test compound was calculated. IC50 was calculated by the residual enzyme activity using Graphpad Prism software.
On the technique in general: Liver microsomes are a subcellular fraction often used to study metabolism.

The target in series [3] is T2, CYP2C9 (Homo sapiens, UniProt P11712).
T2 construct: human liver microsomes were used as the CYP450 enzyme source; from tissue; host or cells: human liver microsomes
The description is as above. The settings on record: human liver microsomes; read-out: Inhibitory activity on drug-metabolizing enzymes (IC50, µM) CYP2C9. The class given is in vitro ADME.
Excerpt: as §1, §2

In series [4] the target is T3, CYP3A4 (Homo sapiens, UniProt P08684).
T3 construct: human liver microsomes were used as the CYP450 enzyme source; from tissue; host or cells: human liver microsomes
As to the kind of experiment: Inhibition of hepatic drug-metabolizing enzymes in human liver microsomes (substrates midazolam and testosterone). The format is in vitro ADME.
Excerpt: as §1, §2

The target in series [5] is T4, SOS1 (Homo sapiens, UniProt Q07889).
T4 sequence (Q07889 1-1333): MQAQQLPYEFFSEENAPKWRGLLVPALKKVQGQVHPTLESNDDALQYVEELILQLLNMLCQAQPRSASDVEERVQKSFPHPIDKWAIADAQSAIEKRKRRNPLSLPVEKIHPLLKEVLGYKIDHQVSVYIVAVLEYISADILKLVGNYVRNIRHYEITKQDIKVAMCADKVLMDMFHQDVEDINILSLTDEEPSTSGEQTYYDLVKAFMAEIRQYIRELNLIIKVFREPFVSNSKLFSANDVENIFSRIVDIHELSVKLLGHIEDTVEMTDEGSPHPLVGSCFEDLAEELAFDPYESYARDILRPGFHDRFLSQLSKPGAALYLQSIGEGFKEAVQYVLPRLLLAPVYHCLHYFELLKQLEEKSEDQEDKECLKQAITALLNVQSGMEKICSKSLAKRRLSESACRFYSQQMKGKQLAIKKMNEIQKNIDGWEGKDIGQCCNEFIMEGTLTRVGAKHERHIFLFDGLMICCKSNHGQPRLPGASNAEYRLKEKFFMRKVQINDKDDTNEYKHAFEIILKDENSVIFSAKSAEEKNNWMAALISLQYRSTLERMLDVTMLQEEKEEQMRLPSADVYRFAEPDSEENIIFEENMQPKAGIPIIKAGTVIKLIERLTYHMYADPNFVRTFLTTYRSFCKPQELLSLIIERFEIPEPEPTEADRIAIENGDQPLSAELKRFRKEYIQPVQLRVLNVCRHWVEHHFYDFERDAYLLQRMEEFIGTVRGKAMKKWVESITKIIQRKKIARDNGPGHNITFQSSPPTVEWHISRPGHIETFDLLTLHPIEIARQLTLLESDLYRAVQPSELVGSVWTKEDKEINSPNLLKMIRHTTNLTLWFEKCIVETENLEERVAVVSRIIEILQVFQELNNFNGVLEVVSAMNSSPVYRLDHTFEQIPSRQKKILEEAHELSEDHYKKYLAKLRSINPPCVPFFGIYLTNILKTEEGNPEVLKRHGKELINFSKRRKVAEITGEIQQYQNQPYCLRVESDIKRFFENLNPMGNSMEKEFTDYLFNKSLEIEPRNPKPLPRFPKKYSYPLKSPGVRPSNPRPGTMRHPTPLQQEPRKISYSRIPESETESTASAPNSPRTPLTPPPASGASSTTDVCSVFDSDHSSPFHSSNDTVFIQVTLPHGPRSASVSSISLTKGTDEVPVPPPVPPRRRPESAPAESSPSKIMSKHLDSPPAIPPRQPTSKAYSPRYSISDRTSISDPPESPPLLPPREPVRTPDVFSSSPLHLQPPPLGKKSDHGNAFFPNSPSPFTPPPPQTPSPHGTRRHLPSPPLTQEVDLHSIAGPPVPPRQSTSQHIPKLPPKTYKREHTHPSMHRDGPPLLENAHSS
Description: biochemical.

Series [6] relates to NCI-H358 non-small cell lung cancer cells. As to the kind of experiment: Inhibition of NCI-H358 cell proliferation (CellTiter-Glo 3D, 7 days). The class given is cell-based. The note with it: Homo sapiens, NCI-H358, 168 h, 3D microspheres, read-out: Inhibitory activity against NCI-H358 cell proliferation (IC50). The method, boiled down:
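NCI-H358 cells at 2000/well in ultra-low attachment plates grown overnight into spheroids, then exposed to 8-point 5-fold compound dilutions in RPMI-1640/10% FBS for 7 days at 37 °C. Viability by CellTiter-Glo 3D luminescence; inhibition relative to no-inhibitor and cell-free controls.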

The mark [7] stands for this setting: substrate midazolam, read-out: Inhibitory activity on drug-metabolizing enzymes (IC50, µM) CYP3A4-M.
[8] abbreviates: substrate testosterone, read-out: Inhibitory activity on drug-metabolizing enzymes (IC50, µM) CYP3A4-T.

Read-outs that look alike come from different tables or passages of the source.

T3 sequence (P08684 whole entry): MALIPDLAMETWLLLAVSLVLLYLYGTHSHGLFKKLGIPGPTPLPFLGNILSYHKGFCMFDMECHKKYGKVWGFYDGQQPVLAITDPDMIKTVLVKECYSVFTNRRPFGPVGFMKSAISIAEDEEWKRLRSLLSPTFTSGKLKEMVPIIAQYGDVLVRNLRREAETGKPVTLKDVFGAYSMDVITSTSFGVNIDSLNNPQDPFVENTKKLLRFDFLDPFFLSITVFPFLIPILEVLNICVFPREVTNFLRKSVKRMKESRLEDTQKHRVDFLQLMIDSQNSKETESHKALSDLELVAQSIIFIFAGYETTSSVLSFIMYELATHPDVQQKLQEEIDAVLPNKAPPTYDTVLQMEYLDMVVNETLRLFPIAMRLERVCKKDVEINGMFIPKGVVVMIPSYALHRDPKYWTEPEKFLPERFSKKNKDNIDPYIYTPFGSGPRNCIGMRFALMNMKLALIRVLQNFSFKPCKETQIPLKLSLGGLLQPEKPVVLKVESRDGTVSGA
T1 sequence (P33261 whole entry): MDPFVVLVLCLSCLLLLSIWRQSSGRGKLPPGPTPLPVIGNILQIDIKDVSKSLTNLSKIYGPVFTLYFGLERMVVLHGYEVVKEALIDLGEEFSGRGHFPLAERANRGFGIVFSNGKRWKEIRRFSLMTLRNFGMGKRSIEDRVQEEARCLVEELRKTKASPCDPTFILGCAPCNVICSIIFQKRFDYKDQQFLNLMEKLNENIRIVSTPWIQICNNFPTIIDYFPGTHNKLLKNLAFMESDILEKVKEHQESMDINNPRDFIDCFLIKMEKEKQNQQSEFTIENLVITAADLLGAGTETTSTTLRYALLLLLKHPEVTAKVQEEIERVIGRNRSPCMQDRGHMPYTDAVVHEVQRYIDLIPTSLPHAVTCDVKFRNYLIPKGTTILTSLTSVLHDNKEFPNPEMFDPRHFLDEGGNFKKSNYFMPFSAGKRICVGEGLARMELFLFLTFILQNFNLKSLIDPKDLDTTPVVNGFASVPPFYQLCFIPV
T2 sequence (P11712 whole entry): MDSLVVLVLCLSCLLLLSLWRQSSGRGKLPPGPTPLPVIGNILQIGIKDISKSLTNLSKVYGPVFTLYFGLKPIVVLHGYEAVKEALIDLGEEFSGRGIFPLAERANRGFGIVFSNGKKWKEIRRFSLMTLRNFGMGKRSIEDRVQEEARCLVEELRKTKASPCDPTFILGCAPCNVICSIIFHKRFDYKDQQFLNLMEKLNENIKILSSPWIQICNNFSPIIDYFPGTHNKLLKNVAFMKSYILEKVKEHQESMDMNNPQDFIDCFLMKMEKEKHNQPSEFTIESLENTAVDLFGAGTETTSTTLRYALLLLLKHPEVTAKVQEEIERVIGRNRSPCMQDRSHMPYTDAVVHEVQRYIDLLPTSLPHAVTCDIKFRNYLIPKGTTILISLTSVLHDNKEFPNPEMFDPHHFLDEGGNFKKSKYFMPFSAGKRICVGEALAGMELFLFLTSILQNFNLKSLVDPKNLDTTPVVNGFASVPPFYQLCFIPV

The compound `C[C@@H](Nc1nnc(N)c2cc(=O)n(C3CC3)cc12)c1cccc(C(F)F)c1F` [Example 75, (R)-1-amino-6-cyclopropyl-4-((1-(3-(difluoromethyl)-2-fluorophenyl)ethyl)amino)pyrido[3,4-d]pyridazin-7(6H)-one] displayed a half-life at 1 µM in series [1] greater than 5 h. For the same compound, the CLint scaled at 1 µM in series [1] was less than 7.23 mL/min/kg. Besides, the IC50 in series [2] was greater than 10 µM; in series [3] it was greater than 10 µM; in series [4] (setting [7]), greater than 10 µM; in series [4] (setting [8]), greater than 10 µM; in series [5] it was 0.0048 µM.

The compound `C[C@@H](Nc1nnc(N)c2cc(=O)n(C3(C)CC3)cc12)c1cccc(C(F)F)c1F.O=CO` [Example 74, (R)-1-amino-4-((1-(3-(difluoromethyl)-2-fluorophenyl)ethyl)amino)-6-(1-methylcyclopropyl) pyrido[3,4-d]pyridazin-7(6H)-one formate] had a half-life at 1 µM in series [1] greater than 5 h. Besides, the CLint scaled at 1 µM in series [1] was less than 7.23 mL/min/kg. Moreover, the IC50 in series [2] is greater than 10 µM; in series [3], greater than 10 µM; in series [4] (setting [7]), greater than 10 µM; in series [4] (setting [8]), greater than 10 µM; in series [5] it was 0.0046 µM.

On to `CNc1nnc(N[C@H](C)c2cccc(C(F)F)c2F)c2cn(C3CC3)c(=O)cc12` [Example 13, (R)-6-cyclopropyl-4-((1-(3-(difluoromethyl)-2-fluorophenyl)ethyl)amino)-1-(methylamino)pyrid o[3,4-d]pyridazin-7(6H)-one], for which, in series [1], the half-life at 1 µM was 3.97 h. Besides, the CLint scaled at 1 µM in series [1] is 8.8 mL/min/kg. The IC50 in series [2] was greater than 10 µM; in series [3], greater than 10 µM; in series [4] (setting [7]), greater than 10 µM; in series [4] (setting [8]), greater than 10 µM; in series [5] it was 0.0046 µM.

Take `CCNc1nnc(N[C@H](C)c2cccc(C(F)(F)F)c2C)c2cn(C3(C)CC3)c(=O)cc12` [Example 97, (R)-1-(ethylamino)-4-((1-(2-methyl-3-(trifluoromethyl)phenyl)ethyl)amino)-6-(1-methylcyclopropyl) pyrido[3,4-d]pyridazin-7(6H)-one]: in series [6], the IC50 was 0.0368 µM. In addition, in series [1], the half-life at 1 µM stood at 1.75 h and the CLint scaled at 1 µM was 16.7 mL/min/kg. In series [5], this compound had an IC50 of 0.0051 µM.

One may read the half-life as the time in which the quantity being followed falls by half. Low readings indicate rapid decline, high ones slow decline.

The record behind these values is EP4722213A1, “NITROGEN-CONTAINING FUNCTIONAL GROUP-SUBSTITUTED PYRIDAZINOPYRIDONE DERIVATIVE AND USE THEREOF” (Sichuan Huiyu Pharmaceutical Co., Ltd., priority 2023, dated 2024).
